We go through eight molecules from patent US8030478B2, “Method for nucleic acid replication and novel artificial base pairs” (priority 2005, dated 2011).

Where two headings read alike, the source gives them in different places.

One assay concerns the target T7 RNA polymerase (Escherichia phage T7, UniProt P00573). The note with it: for transcripts biotinylated (incorporation rate): DNA6 template obtained by ligation; for misincorporation opposite natural bases, yield of biotinylated transcripts / misincorporation per base position in the 152-mer transcripts: DNAcont2 template.
Assay [1] deals with T1, Klenow fragment lacking exonuclease activity (KF exo−) (Escherichia coli, UniProt P00582, D355A/E357A).
T1 construct: enzyme solution of the Klenow fragment lacking exonuclease activity (KF exo^−, Amersham USB); purchased Amersham USB
T1 sequence (P00582 324-928 D355A/E357A): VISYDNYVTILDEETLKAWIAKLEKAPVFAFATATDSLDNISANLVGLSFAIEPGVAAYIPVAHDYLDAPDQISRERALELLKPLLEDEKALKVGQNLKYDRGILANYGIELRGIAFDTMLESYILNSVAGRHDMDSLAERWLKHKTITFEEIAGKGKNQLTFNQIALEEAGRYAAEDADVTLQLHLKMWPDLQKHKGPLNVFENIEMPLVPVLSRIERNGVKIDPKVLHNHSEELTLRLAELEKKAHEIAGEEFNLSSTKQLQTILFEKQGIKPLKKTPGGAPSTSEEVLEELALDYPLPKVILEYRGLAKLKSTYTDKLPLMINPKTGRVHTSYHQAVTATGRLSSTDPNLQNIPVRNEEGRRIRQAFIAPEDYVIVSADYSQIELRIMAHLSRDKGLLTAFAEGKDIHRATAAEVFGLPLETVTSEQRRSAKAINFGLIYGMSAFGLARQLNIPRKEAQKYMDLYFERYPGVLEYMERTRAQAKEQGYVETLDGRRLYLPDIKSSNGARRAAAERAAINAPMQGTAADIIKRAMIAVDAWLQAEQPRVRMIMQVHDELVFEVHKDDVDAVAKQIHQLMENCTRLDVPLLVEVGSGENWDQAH
The assay is classed as biochemical, E. coli. The note with it: for Efficiency (Vmax/KM) / Km / Vmax: 37° C.; for inserted products (KM, Vmax n.d.): 20 minutes, 1500 μM nucleoside 5′-triphosphate, 50 nM enzyme. How it is done: The single nucleotide insertion experiment was performed as described in documents (Non-patent Documents 30-32). A primer (20-mer) labeled with 6-carboxylfluorescein at the 5′-end was annealed with template DNA (35-mer) by heating at 95° C. and slow cooling to 4° C. in 100 mM Tris-HCl (pH 7.5) buffer containing 20 mM MgCl2, 2 mM DTT and 0.1 mg/ml bovine serum albumin. The primer-template duplex solution (10 μM, 5 μl) was mixed with 2 μl enzyme solution of the Klenow fragment lacking exonuclease activity (KF exo^−, Amersham USB). After the mixture was incubated for 2 minutes, each dNTP solution (3 μl) was added to this solution to start the reaction at 37° C. The amount of the enzyme used (5-50 nM), the reaction time (1-35 minutes) and the gradient concentration of each dNTP (0.3-1500 μM) were adjusted to ensure conditions giving 25% or less products. The reaction was stopped with 10 μl stop solution (95% formamide and 20 mM EDTA), and the mixture was immediately heated at 75° C. for 3 minutes. The diluted products were analyzed in an automated ABI377 DNA sequencer equipped with GeneScan software (version 3.0) (Non-patent Document 32). The relative velocity (v0) was calculated by dividing the extent of reaction by the reaction time, and then normalized to the enzyme concentration (20 nM) for the various enzyme concentrations used. Kinetic parameters (KM and Vmax) were obtained from Hanes-Woolf plots of [dNTP]/v0 against [dNTP].
Each parameter was averaged from 3 to 8 data sets.

Sequence of T7 RNA polymerase (P00573 whole entry, the tested form may be a part): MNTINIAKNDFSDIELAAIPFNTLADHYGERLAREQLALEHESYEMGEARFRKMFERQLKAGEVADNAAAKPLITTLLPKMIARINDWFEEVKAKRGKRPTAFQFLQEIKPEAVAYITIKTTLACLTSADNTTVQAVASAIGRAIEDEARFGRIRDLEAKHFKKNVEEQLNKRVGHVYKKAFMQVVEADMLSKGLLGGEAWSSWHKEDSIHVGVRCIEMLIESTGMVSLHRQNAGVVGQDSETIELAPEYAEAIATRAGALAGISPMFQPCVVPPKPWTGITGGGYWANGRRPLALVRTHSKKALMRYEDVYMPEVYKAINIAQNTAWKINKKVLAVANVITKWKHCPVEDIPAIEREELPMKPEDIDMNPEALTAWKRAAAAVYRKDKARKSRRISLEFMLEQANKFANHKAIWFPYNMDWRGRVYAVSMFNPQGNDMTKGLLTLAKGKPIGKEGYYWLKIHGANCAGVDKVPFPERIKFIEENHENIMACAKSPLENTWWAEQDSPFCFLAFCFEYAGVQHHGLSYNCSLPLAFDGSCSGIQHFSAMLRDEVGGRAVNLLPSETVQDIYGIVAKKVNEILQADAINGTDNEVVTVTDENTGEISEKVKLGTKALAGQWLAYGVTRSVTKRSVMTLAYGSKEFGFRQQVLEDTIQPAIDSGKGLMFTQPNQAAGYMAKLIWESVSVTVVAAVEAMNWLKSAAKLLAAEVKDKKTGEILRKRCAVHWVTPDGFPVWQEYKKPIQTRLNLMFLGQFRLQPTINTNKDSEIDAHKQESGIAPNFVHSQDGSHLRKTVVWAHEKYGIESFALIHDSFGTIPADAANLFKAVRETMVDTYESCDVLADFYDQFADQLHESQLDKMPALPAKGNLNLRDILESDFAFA
Protocol for T7 RNA polymerase: 152-mer RNAs transcribed with Bio-PaTP from DNA6 template obtained by ligation and DNAcont2 template obtained by PCR amplification (20 cycles), as well as 152-mer RNAs transcribed with biotinylated UTP (Bio-UTP) from DNAcont5 and DNAcont6 templates obtained by ligation were mixed with streptavidin. Biotinylated RNA-streptavidin complexes were separated from free RNAs on a 7% polyacrylamide-7 M urea gel, and the percentages (yields) of the complexes were determined from their band intensity.
Transcription (20 μl) was performed for 6 hours at 37° C. using 3 μCi [γ-^32P]GTP, 2 mM each natural NTP, 0-4 mM Bio-PaTP (biotinylated Pa substrate: chemically synthesized as shown in Example IV), and 30 nM template (DNA6 and DNAcont2 (see FIG. 6), obtained by both ligation and PCR amplification).
For control reactions using DNAcont5 and DNAcont6 obtained by ligation (see FIG. 6), transcription was performed only with 2 mM ATP, GTP and CTP in the presence or absence of 2 mM Bio-UTP (biotin-16-uridine-5′-triphosphate, Roche Applied Science). The products were analyzed and purified on a 7-10% polyacrylamide-7 M urea gel.
The biotinylated RNA transcripts were detected by gel shift assay using streptavidin. A mixture (10 μl) of 2 pmol ^32P-labeled transcript and 100 pmol streptavidin (Promega) was incubated at 20° C. for 1 hour in 10 mM Tris-HCl buffer (pH 7.6) containing 50 mM NaCl and 10 mM EDTA. The biotinylated RNA-streptavidin complexes were analyzed by electrophoresis on a 7% polyacrylamide-7 M urea gel. To determine the position where Bio-Pa was introduced, each RNA (152-mer) was labeled with [γ-^32P]ATP (Perkin Elmer) after 5′-dephosphorylation with calf intestinal alkaline phosphatase (Takara). The labeled RNA was partially digested with RNase T1 at 55° C. for 12 minutes in 13.3 mM sodium citrate buffer (pH 5.0) containing 4.7 M urea, 0.7 mM EDTA and 0.17 mg/ml E. coli tRNA, or with alkali at 90° C. for 15 minutes in 32 mM sodium carbonate buffer (pH 9.1) containing 0.6 mM EDTA. The alkali-digested RNA solution (9 μl) was mixed with 11 μl of 20 mM Tris-HCl buffer (pH 7.6) containing 150 mM NaCl, and the mixture (10 μl) was then incubated with streptavidin magnetic beads (0.4 mg) (New England BioLabs) for 5 minutes at room temperature to capture the biotinylated RNA. An aliquot (5 μl) of the supernatant was analyzed together with other digested samples on a 10% polyacrylamide-7 M urea gel.

On to `O=Cc1cc(C#CCNC(=O)CCCC[C@@H]2SC[C@@H]3NC(=O)N[C@@H]32)cn1[C@@H]1O[C@H](COP(=O)(O)OP(=O)(O)OP(=O)(O)O)[C@@H](O)[C@H]1O` [Bio-PaTP, 1-(β-D-ribofuranosyl)-4-[(3-biotinamido-1-propynyl)]pyrrole-2-carbaldehyde 5′-triphosphate], for which, at T7 RNA polymerase (2 mM Bio-PaTP), the “transcripts biotinylated (incorporation rate)” value worked out at 90%; the “misincorporation opposite natural bases, yield of biotinylated transcripts” value amounted to 9%; the “misincorporation per base position in the 152-mer transcripts” value came out at 0.06%. Moreover, at T7 RNA polymerase (4 mM Bio-PaTP), the “transcripts biotinylated (incorporation rate)” value is listed as 96%; the “misincorporation opposite natural bases, yield of biotinylated transcripts” value was found to be 16%; the “misincorporation per base position in the 152-mer transcripts” value is 0.12%. On T7 RNA polymerase (template from PCR (20 cycles), FIG. 44d, Lanes 9 and 11), the “reduction of incorporation rate with template obtained by PCR amplification” value was 3-4%.

Broadly, the Km is the concentration of substrate that gives half-maximal velocity. As for `Nc1ccn([C@H]2C[C@H](O)[C@@H](COP(=O)(O)OP(=O)(O)OP(=O)(O)O)O2)c(=O)n1` [dCTP, reference compound], the “Efficiency (Vmax/KM)” value in assay [1] (template (N) = A, temp35N-1) is listed as 1.8 × 10^3 % min^−1M^−1; in assay [1] (template (N) = Ds, temp35N-1), 8.3 × 10^2 % min^−1M^−1; in assay [1] (template (N) = G, temp35N-1) it was 2.3 × 10^7 % min^−1M^−1. For the same molecule, the Michaelis-Menten constant (Km) in assay [1] (template (N) = A, temp35N-1) came to 1200 µM; in assay [1] (template (N) = Ds, temp35N-1), 410 µM; in assay [1] (template (N) = G, temp35N-1), 0.24 µM. Further, the Vmax in assay [1] (template (N) = A, temp35N-1) is listed as 2.2 % min^−1; in assay [1] (template (N) = Ds, temp35N-1), 0.34 % min^−1; in assay [1] (template (N) = G, temp35N-1), 5.5 % min^−1. Further, the “inserted products (KM, Vmax n.d.)” value is “n.d.^c (Minimal inserted products (<2%) were detected after incubation for 20 minutes with 1500 μM nucleoside 5′-triphosphate and 50 nM enzyme.)” in assay [1] (template (N) = Pa, temp35N-2); “n.d. (Minimal inserted products (<2%) were detected after incubation for 20 minutes with 1500 μM nucleoside 5′-triphosphate and 50 nM enzyme.)” in assay [1] (template (N) = Pa′, temp35N-2).

As for `Nc1nc2c(ncn2[C@H]2C[C@H](O)[C@@H](COP(=O)(O)OP(=O)(O)OP(=O)(O)O)O2)c(=O)[nH]1` [dGTP, reference compound], the “Efficiency (Vmax/KM)” value is given as 7.0 × 10^6 % min^−1M^−1 in assay [1] (template (N) = C, temp35N-2); 8.8 × 10^2 % min^−1M^−1 in assay [1] (template (N) = Pa, temp35N-2); 5.5 × 10^2 % min^−1M^−1 in assay [1] (template (N) = Pa′, temp35N-2); 2.9 × 10^3 % min^−1M^−1 in assay [1] (template (N) = T, temp35N-2). For the same molecule, the Michaelis constant (Km) in assay [1] (template (N) = C, temp35N-2) was determined as 2.3 µM; in assay [1] (template (N) = Pa, temp35N-2), 480 µM; in assay [1] (template (N) = Pa′, temp35N-2) it was 800 µM; in assay [1] (template (N) = T, temp35N-2), 420 µM. The Vmax in assay [1] (template (N) = C, temp35N-2) came out at 16 % min^−1; in assay [1] (template (N) = Pa, temp35N-2) it was 0.42 % min^−1; in assay [1] (template (N) = Pa′, temp35N-2), 0.44 % min^−1; in assay [1] (template (N) = T, temp35N-2), 12 % min^−1. The “inserted products (KM, Vmax n.d.)” value in assay [1] (template (N) = Ds, temp35N-1) was “n.d.^c (Minimal inserted products (<2%) were detected after incubation for 20 minutes with 1500 μM nucleoside 5′-triphosphate and 50 nM enzyme.)”.

Regarding `O=Cc1cccn1[C@H]1C[C@H](O)[C@@H](COP(=O)(O)OP(=O)(O)OP(=O)(O)O)O1` [dPaTP], the “Efficiency (Vmax/KM)” value in assay [1] (template (N) = A, temp35N-1) was 5.2 × 10^4 % min^−1M^−1; in assay [1] (template (N) = Ds, temp35N-1), 6.2 × 10^4 % min^−1M^−1; in assay [1] (template (N) = G, temp35N-1) it was 4.4 × 10^2 % min^−1M^−1; in assay [1] (template (N) = Pa, temp35N-2), 1.5 × 10^3 % min^−1M^−1; in assay [1] (template (N) = T, temp35N-1) it was 3.1 × 10^2 % min^−1M^−1. The Km was found to be 330 µM in assay [1] (template (N) = A, temp35N-1); 340 µM in assay [1] (template (N) = Ds, temp35N-1); 140 µM in assay [1] (template (N) = G, temp35N-1); 380 µM in assay [1] (template (N) = Pa, temp35N-2); 170 µM in assay [1] (template (N) = T, temp35N-1). Besides, the Vmax in assay [1] (template (N) = A, temp35N-1) is reported as 17 % min^−1; in assay [1] (template (N) = Ds, temp35N-1), 21 % min^−1; in assay [1] (template (N) = G, temp35N-1) it was 0.061 % min^−1; in assay [1] (template (N) = Pa, temp35N-2), 0.56 % min^−1; in assay [1] (template (N) = T, temp35N-1) it was 0.053 % min^−1. Besides, the “inserted products (KM, Vmax n.d.)” value in assay [1] (template (N) = C, temp35N-1) is “n.d. (Minimal inserted products (<2%) were detected after incubation for 20 minutes with 1500 μM nucleoside 5′-triphosphate and 50 nM enzyme.)”.

Regarding `CC#Cc1cc(C=O)n([C@H]2C[C@H](O)[C@@H](COP(=O)(O)OP(=O)(O)OP(=O)(O)O)O2)c1` [dPa′TP], the “efficiency of incorporation opposite Ds in the template relative to that of dPaTP” value in assay [1] (KF exo−, template Ds) worked out at 3.9 fold. Also, the “Efficiency (Vmax/KM)” value in assay [1] (template (N) = A, temp35N-1) is 1.8 × 10^5 % min^−1M^−1; in assay [1] (template (N) = C, temp35N-1), 7.4 × 10^2 % min^−1M^−1; in assay [1] (template (N) = Ds, temp35N-1), 2.6 × 10^5 % min^−1M^−1; in assay [1] (template (N) = G, temp35N-1), 1.6 × 10^3 % min^−1M^−1; in assay [1] (template (N) = Pa′, temp35N-2) it was 4.1 × 10^4 % min^−1M^−1; in assay [1] (template (N) = T, temp35N-1), 1.6 × 10^3 % min^−1M^−1. The Michaelis constant (Km) stood at 110 µM in assay [1] (template (N) = A, temp35N-1); 80 µM in assay [1] (template (N) = C, temp35N-1); 82 µM in assay [1] (template (N) = Ds, temp35N-1); 80 µM in assay [1] (template (N) = G, temp35N-1); 190 µM in assay [1] (template (N) = Pa′, temp35N-2); 120 µM in assay [1] (template (N) = T, temp35N-1). For the same molecule, the Vmax in assay [1] (template (N) = A, temp35N-1) was determined as 20 % min^−1; in assay [1] (template (N) = C, temp35N-1), 0.059 % min^−1; in assay [1] (template (N) = Ds, temp35N-1), 21 % min^−1; in assay [1] (template (N) = G, temp35N-1) it was 0.13 % min^−1; in assay [1] (template (N) = Pa′, temp35N-2), 7.8 % min^−1; in assay [1] (template (N) = T, temp35N-1) it was 0.19 % min^−1.

Consider `Cc1cn([C@H]2C[C@H](O)[C@@H](COP(=O)(O)OP(=O)(O)OP(=O)(O)O)O2)c(=O)[nH]c1=O` [dTTP, reference compound], for which the “Efficiency (Vmax/KM)” value in assay [1] (template (N) = A, temp35N-1) is listed as 4.0 × 10^6 % min^−1M^−1; in assay [1] (template (N) = Ds, temp35N-1), 1.9 × 10^3 % min^−1M^−1; in assay [1] (template (N) = G, temp35N-1), 2.1 × 10^3 % min^−1M^−1; in assay [1] (template (N) = Pa, temp35N-2), 1.1 × 10^2 % min^−1M^−1; in assay [1] (template (N) = Pa′, temp35N-2), 1.0 × 10^2 % min^−1M^−1. The Km came to 0.7 µM in assay [1] (template (N) = A, temp35N-1); 220 µM in assay [1] (template (N) = Ds, temp35N-1); 140 µM in assay [1] (template (N) = G, temp35N-1); 880 µM in assay [1] (template (N) = Pa, temp35N-2); 1400 µM in assay [1] (template (N) = Pa′, temp35N-2). Moreover, the Vmax in assay [1] (template (N) = A, temp35N-1) was 2.8 % min^−1; in assay [1] (template (N) = Ds, temp35N-1) it was 0.41 % min^−1; in assay [1] (template (N) = G, temp35N-1), 0.29 % min^−1; in assay [1] (template (N) = Pa, temp35N-2), 0.097 % min^−1; in assay [1] (template (N) = Pa′, temp35N-2), 0.14 % min^−1.

As for “biotin-16-uridine-5′-triphosphate [Bio-UTP, reference compound]”, at T7 RNA polymerase (DNAcont5 template, 2 mM Bio-UTP, 2 mM ATP, GTP and CTP), the “biotinylation of transcripts by incorporation opposite A” value is on record as “completely biotinylated”. On T7 RNA polymerase (DNAcont6 template, 2 mM Bio-UTP, 2 mM ATP, GTP and CTP), the “transcripts biotinylated by misincorporation opposite bases G, C and T” value is reported as 21%.

With dATP [reference compound], the “Efficiency (Vmax/KM)” value in assay [1] (template (N) = C, temp35N-2) is given as 4.6 × 10^3 % min^−1M^−1; in assay [1] (template (N) = Ds, temp35N-1), 2.4 × 10^3 % min^−1M^−1; in assay [1] (template (N) = Pa, temp35N-2) it was 4.3 × 10^4 % min^−1M^−1; in assay [1] (template (N) = Pa′, temp35N-2), 3.7 × 10^4 % min^−1M^−1; in assay [1] (template (N) = T, temp35N-2) it was 4.1 × 10^6 % min^−1M^−1. The Km in assay [1] (template (N) = C, temp35N-2) stood at 500 µM; in assay [1] (template (N) = Ds, temp35N-1) it was 150 µM; in assay [1] (template (N) = Pa, temp35N-2), 490 µM; in assay [1] (template (N) = Pa′, temp35N-2) it was 570 µM; in assay [1] (template (N) = T, temp35N-2) it was 0.81 µM. Moreover, the Vmax in assay [1] (template (N) = C, temp35N-2) amounted to 2.3 % min^−1; in assay [1] (template (N) = Ds, temp35N-1) it was 0.36 % min^−1; in assay [1] (template (N) = Pa, temp35N-2), 21 % min^−1; in assay [1] (template (N) = Pa′, temp35N-2) it was 21 % min^−1; in assay [1] (template (N) = T, temp35N-2), 3.3 % min^−1.
